Laboratory results taken from patent US20220296108A1, “METHOD AND APPARATUS FOR QUANTITATION OF MICROCIRCULATION” (Seoul National University Hospital, priority 2019, published 2022).

Key:
CLP mouse model [1] = test: Histological analysis of the number of sequestered neutrophils (Ly6G+ cells) in Mac-1-inhibited CLP mouse model; type: in vivo; details: vs CLP mouse model (Fc) and normal group (Sham), FIG. 28B
From the text: Specifically, lung tissues were harvested after intravital imaging of the mouse models. The tissues were perfused and fixed with 4% paraformaldehyde and then further fixed overnight in 4% paraformaldehyde. For H&E (hematoxylin and eosin) staining, the fixed tissues were processed using standard procedures, embedded in paraffin and then sliced into 4-μm sections, followed by conventional H&E staining.

CLP mouse model [2] = test: Arterial blood gas analysis in CLP mouse model before and after abciximab; type: in vivo; details: post-Abc CLP mouse vs normal group (Sham)
Procedure: In addition, arterial blood gas analysis was performed to assess the oxygen partial pressure and carbon dioxide partial pressure in the arterial blood of the pre-Abc mouse model and the post-Abc mouse model. Specifically, a 1-mL syringe with a 22-gauge needle was coated with heparin and introduced into the left ventricle of the heart of the normal mouse model (Sham) (n=8), pre-Abc mouse model (Fc) (n=10) and post-Abc mouse model (Abc) (n=6). Then, about 200 μL of blood was sampled and analyzed with an i-STAT handheld blood analyzer (G3 cartridge, Abbott Point of Care Inc.). The mice were euthanized in a CO2 chamber right after the blood sampling.

CLP mouse model [3] = test: Functional capillary ratio (FCR) by intravital lung imaging in Mac-1-inhibited CLP mouse model
Procedure: CLP model was performed by a single experienced operator according to a previously described method. Specifically, 75% of the cecum of the LysM^GFP/+ mouse was ligated with 6-0 black silk and single puncture with a dual hole in the distal cecum was made with a 21-gauge needle. After the puncture, the cecum was gently squeezed to confirm the patency of the puncture hole for extrusion of feces. The cecum was replaced to the abdominal cavity and the abdominal incision was closed with 4-0 black silk. A normal group (sham group) underwent the same surgical procedure except the cecal ligation and puncture. […]
Specifically, three continuous laser modules (488 nm (MLD488, Cobolt), 561 nm (Jive, Cobolt) and 640 nm (MLD640, Cobolt)) were utilized as excitation light sources for multi-color fluorescence imaging. […] The fluorescence signals emitted from the lung of the mouse model on a XYZ translational 3D stage (3DMS, Sutter Instrument) were epi-detected by the objective lenses. De-scanned three-color fluorescence signals were spectrally divided by diachronic beam splitters (DBS4; FF560-Di01, DBS5; FF649-Di01, Semrock) and then detected by a photomultiplier (PMT; R9110, Hamamatsu) through bandpass filters (BPF1; FF02-525/50, BPF2; FF01-600/37, BPF3; FF01-685/40, Semrock). […]

Q: For abciximab, which “Number of sequestered neutrophils (Ly6G+ cells)” value (CLP mouse model [1]) is on record?
A: recovered to a level comparable to that of the normal group

Q: What about the “Oxygen partial pressure in arterial blood” value (CLP mouse model [2]; FIG. 31A) of the same substance?
A: comparable to that of the normal group

Q: And the “Carbon dioxide partial pressure in arterial blood” value (CLP mouse model [2]; FIG. 31B)?
A: comparable to that of the normal group

Q: And the “Functional capillary ratio (FCR) increase after vs before abciximab administration” value (CLP mouse model [3]; CLP mouse imaged 6 hours after CLP (pre-Abc), then 30 minutes after abciximab (post-Abc))?
A: ≥ 2 times

Q: And the “Dead space and functional capillaries in pulmonary microcirculation imaging” value (CLP mouse model [3]; CLP mouse, vs CLP mouse model (Fc), FIG. 27)?
A: dead space was decreased
